Experimental data taken from patent publication US20100316529A1, “Anti-Microbial Systems and Methods” (priority 2001, published 2010).
“And” between values parts separate entries of the source, which are not always exact repeats. Equal entries are not always repeated.

Assays:
Format in all cases: cell-based
Coryneform strait/amy = assay: EDTA salt dilution test, MIC/MBC
Proteus vulgaris = assay: EDTA salt dilution test, MIC/MBC
Ent. faeculm = assay: EDTA salt dilution test, MIC/MBC
Ent. faecalis = assay: EDTA salt dilution test, MIC/MBC
Protocol: (§1) Protocol one: Broth dilutions:
(§2) Inoculate a 25 ml nutrient broth (Oxoid No2) in a sterile universal container with one of the following organisms; Pseudomonas aeruginosa, Proteus Mirabilis, E. coli, Klebsiella pneumoniae, Staph aureus, Coagulase negative staphylococci, Enterococcus faecalis or MRSA.
(§3) Incubate the broth at 37° C. overnight.
(§4) To make these concentrations put the EDTA needed for 10 mLs in only 9 mLs of broth in sterile universal containers, as this will be diluted further when the organisms are added.
(§5) Dilute the overnight broth cultures to 10^7 organisms/mL using more sterile nutrient broth.
(§6) Add 1 mL of this diluent to each of the EDTA series broths. This gives a final concentration of 10^6 organism/mL in the EDTA broths.
(§7) Incubate for 18 hours at 37° C.
(§8) Next day visually read the MIC's by observing the turbidity of the broths.
(§9) Plate out 1 uL of each dilution onto fresh blood agar plate and spread using a sterile plastic spreader.
(§10) Incubate overnight at 37° C.
(§11) Next day read the MBC's by performing colony counts.

S. lentus = assay: EDTA salt dilution test, MIC/MBC
Protocol: as §1, §2, §3, §4, §5, §6, §7, §8, §9, §10, §11

MRSA = assay: EDTA salt dilution test, MIC/MBC; conditions: five entries, Exhibit A2
Protocol: as §1, §2, §3, §4, §5, §6, §7, §8, §9, §10, §11

S. epidermidis = assay: EDTA salt dilution test, MIC/MBC; conditions: two entries
Protocol: as §1, §2, §3, §4, §5, §6, §7, §8, §9, §10, §11

VRE = assay: EDTA salt dilution test, MIC/MBC; conditions: two entries
Protocol: as §1, §2, §3, §4, §5, §6, §7, §8, §9, §10, §11

S. xylosus = assay: EDTA salt dilution test, MIC/MBC
Protocol: as §1, §2, §3, §4, §5, §6, §7, §8, §9, §10, §11

S. aureus = assay: EDTA salt dilution test, MIC/MBC; conditions: five entries, Exhibit A2
Protocol: as §1, §2, §3, §4, §5, §6, §7, §8, §9, §10, §11

Kleb. pnemoniae = assay: EDTA salt dilution test, MIC/MBC; conditions: two entries, Exhibit A1
Protocol: as §1, §2, §3, §4, §5, §6, §7, §8, §9, §10, §11

S. capitis = assay: EDTA salt dilution test, MIC/MBC; conditions: two entries
Protocol: as §1, §2, §3, §4, §5, §6, §7, §8, §9, §10, §11

E. coli = assay: EDTA salt dilution test, MIC/MBC; conditions: three entries, Exhibit A1
Protocol: as §1, §2, §3, §4, §5, §6, §7, §8, §9, §10, §11

S. simulans = assay: EDTA salt dilution test, MIC/MBC
Protocol: as §1, §2, §3, §4, §5, §6, §7, §8, §9, §10, §11

Pseudomonas aeruginosa = assay: EDTA salt dilution test, MIC/MBC; conditions: two entries
Protocol: as §1, §2, §3, §4, §5, §6, §7, §8, §9, §10, §11

Pseudomonas sp. = assay: EDTA salt dilution test, MIC/MBC
Protocol: as §1, §2, §3, §4, §5, §6, §7, §8, §9, §10, §11

Proteus mirabilis = assay: EDTA salt dilution test, MIC/MBC; conditions: two entries
Protocol: as §1, §2, §3, §4, §5, §6, §7, §8, §9, §10, §11

Kleb. oxytoca = assay: EDTA salt dilution test, MIC/MBC
Steno. maltophilia = assay: EDTA salt dilution test, MIC/MBC
Ent. cloacae = assay: EDTA salt dilution test, MIC/MBC; conditions: three entries, Exhibit A1
variety of microbes = assay: Efficacy of disinfectant salts of EDTA against a number of microbes; conditions: general statement
Protocol: The Applicant has tested the efficacy of a number of disinfectant salts of EDTA against a number of microbes.
as §1, §2, §3
Next day make up a series of nutrient broths containing a dilution of the appropriate EDTA as in the following list; 0 mg/mL, 0.25 mg/mL, 0.5 mg/mL, 1.0 mg/mL, 1.5 mg/mL, 2.0 mg/mL, 4.0 mg/mL, 6.0 mg/mL, 8.0 mg/mL, 10 mg/mL, 15 mg/mL, 20 mg/mL, 25 mg/mL, 30 mg/ml, 40 mg/mL, 50 mg/mL, 60 mg/mL, 70 mg/mL, 80 mg/mL, 90 mg/mL, 100 mg/mL.
as §4, §5, §6, §7
Next day visually read the MIC's by observing the turbidity of the broths. […]
as §11

C. lucitaniae = assay: EDTA agar dilution method, yeasts, MIC/MBC; conditions: Exhibit C
Description: (§12) Protocol 3: Agar dilutions.
Do this until all the media is used up.

Acinetobacter baumanii = assay: EDTA salt dilution test, MIC/MBC; conditions: two entries, Exhibit A2
C. guilliermondii = assay: EDTA agar dilution method, yeasts, MIC/MBC; conditions: Exhibit C
Protocol: (§13) The bactericidal effects were measured as the Minimum Bactericidal Concentration (MBC), while the inhibitory effects were measured as the Minimum Inhibitory Concentration (MIC). In each case, the concentration was measured as milligrams of the disinfectant salt per milliliter of water (mg/ml).
as §12
(§14) Prepare nutrient agar plates with increasing concentrations of EDTA, 0, 0.5, 1, 1.5, 2, 4, 6, 8, 10, 15, 20, 25, 30 mg/mL, using the following method. • Pour 300 mL distilled water into a sterile glass bottle. • Add the appropriate amount of EDTA. This is the concentration desired ×300, in grams. • Once the EDTA has fully dissolved, add 8.4 g of Nutrient agar powder (Oxoid). Mix thoroughly. • Do this for each concentration of EDTA required. […] Do this until all the media is used up. Label the plates with the concentration of EDTA they contain. • These plates can then be stored, until they are needed, in a 4° C. fridge. • Use an automatic plate inoculator to inoculate each plate with 21 organisms.

C. tropicalis = assay: EDTA agar dilution method, yeasts, MIC/MBC; conditions: Exhibit C
Protocol: as §13, §12, §14

C. glabrata = assay: EDTA agar dilution method, yeasts, MIC/MBC; conditions: two entries, Exhibit C
Protocol: as §13, §12, §14

C. albicans = assay: EDTA agar dilution method, yeasts, MIC/MBC; conditions: three entries, Exhibit C
Protocol: as §13, §12, §14

C. parapsilosis = assay: EDTA agar dilution method, yeasts, MIC/MBC; conditions: Exhibit C
Protocol: as §13, §12, §14

Kleb. ornitholytica = assay: EDTA salt dilution test, MIC/MBC
Cornyeform amycolatum = assay: EDTA salt dilution test, MIC/MBC

## N.N.O=C(O)CN(CCN(CC(=O)O)CC(=O)O)CC(=O)O [Diammonium EDTA]
Coryneform strait/amy; Exhibit A1
  MBC, minimum concentration required to kill an entire population: 1000 µg/mL
Coryneform strait/amy; Exhibit A2
  MIC, minimum concentration required to inhibit growth: <500 µg/mL
Proteus vulgaris; Exhibit A1
  MBC, minimum concentration required to kill an entire population: >10000 µg/mL
Proteus vulgaris; Exhibit A2
  MIC, minimum concentration required to inhibit growth: <500 µg/mL
Ent. faeculm; Ent. faecuim, Exhibit A2
  MIC, minimum concentration required to inhibit growth: <500 µg/mL
Ent. faeculm; Ent. faeculm, Exhibit A1
  MBC, minimum concentration required to kill an entire population: 15000 µg/mL
Ent. faecalis; Exhibit A1
  MBC, minimum concentration required to kill an entire population: 15000 µg/mL
Ent. faecalis; Exhibit A2
  MIC, minimum concentration required to inhibit growth: 1000 µg/mL
S. lentus; Exhibit A1
  MBC, minimum concentration required to kill an entire population: 10000 µg/mL
S. lentus; Exhibit A2
  MIC, minimum concentration required to inhibit growth: <500 µg/mL
MRSA
  MIC, minimum concentration required to inhibit growth: 1000 µg/mL
S. epidermidis; Exhibit A1
  MBC, minimum concentration required to kill an entire population: 4000 µg/mL and 8000 µg/mL
S. epidermidis; Exhibit A2
  MIC, minimum concentration required to inhibit growth: <500 µg/mL
VRE; Exhibit A1
  MBC, minimum concentration required to kill an entire population: 15000 µg/mL and >15000 µg/mL
VRE; Exhibit A2
  MIC, minimum concentration required to inhibit growth: <500 µg/mL and 1000 µg/mL
S. xylosus; Exhibit A1
  MBC, minimum concentration required to kill an entire population: 4000 µg/mL
S. xylosus; Exhibit A2
  MIC, minimum concentration required to inhibit growth: <500 µg/mL
S. aureus
  MIC, minimum concentration required to inhibit growth: 1000 µg/mL
Kleb. pnemoniae
  MBC, minimum concentration required to kill an entire population: >10000 µg/mL
S. capitis; Exhibit A1
  MBC, minimum concentration required to kill an entire population: 10000 µg/mL and 8000 µg/mL
S. capitis; Exhibit A2
  MIC, minimum concentration required to inhibit growth: <500 µg/mL
E. coli
  MBC, minimum concentration required to kill an entire population: >10000 µg/mL
S. simulans; Exhibit A1
  MBC, minimum concentration required to kill an entire population: 10000 µg/mL
S. simulans; Exhibit A2
  MIC, minimum concentration required to inhibit growth: <500 µg/mL
Pseudomonas aeruginosa; Exhibit A1
  MBC, minimum concentration required to kill an entire population: >10000 µg/mL
Pseudomonas aeruginosa; Exhibit A2
  MIC, minimum concentration required to inhibit growth: 1000 µg/mL
Pseudomonas sp.; Exhibit A1
  MBC, minimum concentration required to kill an entire population: >10000 µg/mL
Pseudomonas sp.; Exhibit A2
  MIC, minimum concentration required to inhibit growth: <500 µg/mL
Proteus mirabilis; Exhibit A1
  MBC, minimum concentration required to kill an entire population: >10000 µg/mL
Proteus mirabilis; Exhibit A2
  MIC, minimum concentration required to inhibit growth: <500 µg/mL
Kleb. oxytoca; Exhibit A1
  MBC, minimum concentration required to kill an entire population: >10000 µg/mL
Kleb. oxytoca; Exhibit A2
  MIC, minimum concentration required to inhibit growth: 1000 µg/mL
Steno. maltophilia; Exhibit A1
  MBC, minimum concentration required to kill an entire population: >10000 µg/mL
Steno. maltophilia; Exhibit A2
  MIC, minimum concentration required to inhibit growth: 1000 µg/mL
Ent. cloacae
  MBC, minimum concentration required to kill an entire population: >10000 µg/mL
Variety of microbes
  anti-microbial (antifungal and antibacterial) properties compared with the disodium salt: superior to disodium EDTA
C. lucitaniae
  MIC's, Minimum Inhibitory Concentration: 500 µg/mL
Acinetobacter baumanii
  MIC, minimum concentration required to inhibit growth: <500 µg/mL
C. guilliermondii
  MIC's, Minimum Inhibitory Concentration: 500 µg/mL
C. tropicalis
  MIC's, Minimum Inhibitory Concentration: 1000 µg/mL
C. glabrata
  MIC's, Minimum Inhibitory Concentration: 500 µg/mL
C. albicans
  MIC's, Minimum Inhibitory Concentration: 500 µg/mL
C. parapsilosis
  MIC's, Minimum Inhibitory Concentration: 500 µg/mL
Kleb. ornitholytica; Exhibit A1
  MBC, minimum concentration required to kill an entire population: >10000 µg/mL
Kleb. ornitholytica; Exhibit A2
  MIC, minimum concentration required to inhibit growth: 1000 µg/mL
Cornyeform amycolatum; Exhibit A1
  MBC, minimum concentration required to kill an entire population: 1000 µg/mL
Cornyeform amycolatum; Exhibit A2
  MIC, minimum concentration required to inhibit growth: <500 µg/mL
